From patent US10316056B2, “Chemical compounds and use thereof for improving muscular quality” (BIOPHYTIS, priority 2014, dated 2019)

How the values were obtained:
[1] = test system: myostatin gene expression in C2C12 cells; experiment: Inhibition of myostatin expression in C2C12 cells (qPCR); type: cell-based; conditions: Mus musculus, percentage myostatin gene expression in cells in contact with the compounds related to control cells, C2C12, 6 h
Procedure: After several experiments in which the C2C12 cells differentiated into myotubes were incubated in the presence of IGF-1 or 20E for 2 h 30 or 6 h, two screening tests were developed. Thus, the phosphorylation of the S6 protein kinase and the expression of the myostatin gene were studied in order to determine their modulation by a growth hormone or an ecdysone and to characterize these modulations from a statistical point of view. The C2C12 myoblast cells (ATCC CRL-1772) are seeded into 24-well plates at a density of 30 000 cells per well and cultured in a DMEM medium containing glucose in a proportion of 4.5 g/l and supplemented with fetal calf serum (10%) and with antibiotics (penicillin and streptomycin). Forty-eight hours later, the myoblasts are induced to differentiate by partial serum depletion (2% instead of 10%) for 5 days. The cells are then placed in a medium which is glucose-depleted (DMEM containing 1 g/l of glucose) and serum-free in the presence of the test molecules or of the references (100 ng/ml IGF-1 or 10 μ[…]) for 6 h. At the end of the experiment, the messenger RNAs (mRNAs) are extracted using the conventional methodology based on phenol and chloroform. Briefly, the cells are lysed in a Trizol solution (Sigma T9424) containing a strong acid and phenol. The mRNAs are separated from the proteins by addition of chloroform and then centrifugation. They are then precipitated from isopropanol and then suspended at a concentration of 1 μg/μl in an […] ultrapure water. 1 μg of mRNA is then converted by reverse transcription into complementary DNA by the AMV enzyme in the presence of a primer and of a mixture of nucleotides according to the protocol given by the supplier (Applied Biosystems 4368814). […] The qPCRs are carried out on a 7900HT Fast real-Time PCR detection system (Applied Biosystems). The programming conditions are standard and consist of 1 cycle at 95° C. for 15 min, followed by 40 cycles at 95° C. for 15 s and at 60° C. for 1 min and the program ends with a melt curve step between 60° C. and 95° C. […] Fluorescent probes bind to the double-stranded DNA and are fluorescent only once bound to the DNA. A fluorescence threshold is established by the machine's program. When the amount of DNA allows the fluorescent probe to exceed this threshold, a PCR cycle number, called “Ct” for “Cycle Threshold”, is obtained. It is this value which forms the basis of the calculations to quantify the DNA relatively. A ratio R is established between the amount of starting DNA of a sample and that of a control, which has not undergone treatment (i.e. […] R=2^-ΔΔCt).

[2] = test system: S6 kinase (S6K1) phosphorylation in C2C12 cells; experiment: Phosphorylation of the S6 kinase in C2C12 cells (ELISA pS6K T389), protein synthesis; type: cell-based, mouse; conditions: Mus musculus, C2C12, 2 h; for activity at 10 µM: read-out: Protein synthesis (percentage increase in S6K phosphorylation in muscle cells); for activity: test compounds and 20E reference (10 μM), read-out: S6K1 phosphorylation level
Procedure: After several experiments in which the C2C12 cells differentiated into myotubes were incubated in the presence of IGF-1 or 20E for 2 h 30 or 6 h, two screening tests were developed. Thus, the phosphorylation of the S6 protein kinase and the expression of the myostatin gene were studied in order to determine their modulation by a growth hormone or an ecdysone and to characterize these modulations from a statistical point of view.
The C2C12 myoblast cells (ATCC CRL-1772) are seeded into 6-well plates at a density of 170 000 cells per well and cultured in a DMEM medium containing glucose in a proportion of 4.5 g/l and supplemented with fetal calf serum (10%) and with antibiotics (penicillin and streptomycin). Forty-eight hours later, the myoblasts are induced to differentiate by partial serum depletion (2% instead of 10%) for 5 days. The cells are then placed in a medium which is glucose-depleted (DMEM containing 1 g/l of glucose) and serum-free in the presence of the test molecules or of the references (100 ng/ml IGF-1 or 10 μM 20E) for 2 h. At the end of the experiment, the cells are lysed in a commercial lysis buffer (Invitrogen FNN0011) supplemented with a commercial mixture of anti-proteases (Roche 05056489001). After centrifugation, the cytoplasmic fraction containing the soluble proteins is kept and the protein concentration is determined using a commercial kit (Biorad 500-0114), the principle of which is composed of assaying by the Lowry method. The assaying of the S6 kinase phosphorylation is carried out using a commercial ELISA (Enzyme Linked ImmunoSorbent Assay) kit (Cell signaling 7063). Briefly, 50 μg of protein lysate are deposited in the wells of a 96-well microplate and incubated overnight at 4° C. with the solution of antigen specific for the pS6 kinase threonine 389 antibody. The binding of the antigen to the bottom of the wells is done electrostatically. The solution of antibody to be assayed (pS6K T389) is then incubated at 37° C. in the wells for 2 hours. The antibodies bind specifically to the antigen. The wells are then washed with washing buffer in order to remove the antigen-specific primary antibodies to be assayed which are in excess. The third step consists in binding the detection antibody. The solution of detection antibodies is incubated at 37° C. in the wells for 1 hour. The wells are then washed in order to remove the excess detection antibodies. It should be noted that the detection antibodies are coupled to an enzyme which, in the presence of its substrate, converts it into a reaction product that can be detected and measured by virtue of the appearance of a coloration. […] The appearance of a blue coloration in the substrate indicates the presence of the antibody to be assayed. In order to prevent any saturation phenomenon, a stop solution (generally containing […]) is added and brings about a change in coloration, which goes from blue to yellow. The strength thereof is proportional to the amount of enzyme present and thus to the concentration of antibody sought. The strength of the signal is measured using spectrophotometry at a wavelength of 450 nm.

SMILES | mrna remaining at 10 µM [1] [%] | activity at 10 µM [2] [%] | activity [2] [%]
C=CCCO/N=C(/C)[C@H]1CC[C@@]2(O)C3=CC(=O)[C@@H]4C[C@@H](O)[C@@H](O)C[C@]4(C)C3CC[C@]12C (stereo partly drawn) [Compound 28, (2S,3R,5R,10R,13R,14S,17S)-17-(N-but-3-enoxy-C-methylcarbonimidoyl)-2,3,14-trihydroxy-10,13-dimethyl-2,3,4,5,9,11,12,15,16,17-decahydro-1H-cyclopenta[a]phenanthren-6-one] | < 70 | > 130 | 130 to 140
CCN(CC)CCO/N=C(/C)[C@H]1CC[C@@]2(O)C3=CC(=O)[C@@H]4C[C@@H](O)[C@@H](O)C[C@]4(C)C3CC[C@]12C (stereo partly drawn) [Compound 32, (2S,3R,5R,10R,13R,14S,17S)-17-(N-(2-diethylaminoethoxy)-C-methylcarbonimidoyl)-2,3,14-trihydroxy-10,13-dimethyl-2,3,4,5,9,11,12,15,16,17-decahydro-1H-cyclopenta[a]phenanthren-6-one] | < 70 | 110 to 129 | ~120
COCCN(C(=O)COC)C(C)[C@H]1CC[C@@]2(O)C3=CC(=O)[C@@H]4C[C@@H](O)[C@@H](O)C[C@]4(C)C3CC[C@]12C (stereo partly drawn) [Compound 41, 2-methoxy-N-(2-methoxyethyl)-N-[1-[(2S,3R,5R,10R,13R,14S,17S)-2,3,14-trihydroxy-10,13-dimethyl-6-oxo-2,3,4,5,9,11,12,15,16,17-decahydro-1H-cyclopenta[a]phenanthren-17-yl]ethyl]acetamide] | < 70 | 110 to 129 | ~120
COCCNC(C)[C@H]1CC[C@@]2(O)C3=CC(=O)[C@@H]4C[C@@H](O)[C@@H](O)C[C@]4(C)C3CC[C@]12C (stereo partly drawn) [Compound 42, (2S,3R,5R,10R,13R,14S,17S)-2,3,14-trihydroxy-17-[1-(2-methoxyethylamino)ethyl]-10,13-dimethyl-2,3,4,5,9,11,12,15,16,17-decahydro-1H-cyclopenta[a]phenanthren-6-one] |  | > 130 | 130 to 140
CC(NCc1cccnc1)[C@H]1CC[C@@]2(O)C3=CC(=O)[C@@H]4C[C@@H](O)[C@@H](O)C[C@]4(C)C3CC[C@]12C (stereo partly drawn) [Compound 43, (2S,3R,5R,10R,13R,14S,17S)-2,3,14-trihydroxy-10,13-dimethyl-17-[1-(3-pyridylmethylamino)ethyl]-2,3,4,5,9,11,12,15,16,17-decahydro-1H-cyclopenta[a]phenanthren-6-one] | < 70 | 110 to 129 | ~120
C=CCCC(=O)N(CCOC)C(C)[C@H]1CC[C@@]2(O)C3=CC(=O)[C@@H]4C[C@@H](O)[C@@H](O)C[C@]4(C)C3CC[C@]12C (stereo partly drawn) [Compound 52, N-(2-methoxyethyl)-N-[1-[(2S,3R,5R,10R,13R,14S,17S)-2,3,14-trihydroxy-10,13-dimethyl-6-oxo-2,3,4,5,9,11,12,15,16,17-decahydro-1H-cyclopenta[a]phenanthren-17-yl]ethyl]pent-4-enamide] | < 70 | 110 to 129 | ~120
COCC(=O)N(CC1CCCO1)C(C)[C@H]1CC[C@@]2(O)C3=CC(=O)[C@@H]4C[C@@H](O)[C@@H](O)C[C@]4(C)C3CC[C@]12C (stereo partly drawn) [Compound 62, 2-methoxy-N-(tetrahydrofuran-2-ylmethyl)-N-[1-[(2S,3R,5R,10R,13R,14S,17S)-2,3,14-trihydroxy-10,13-dimethyl-6-oxo-2,3,4,5,9,11,12,15,16,17-decahydro-1H-cyclopenta[a]phenanthren-17-yl]ethyl]acetamide] | < 70 | > 130 | 130 to 140
CC([C@H]1CC[C@@]2(O)C3=CC(=O)[C@@H]4C[C@@H](O)[C@@H](O)C[C@]4(C)C3CC[C@]12C)N(CC1CCCO1)C(=O)c1ccco1 (stereo partly drawn) [Compound 63, N-(tetrahydrofuran-2-ylmethyl)-N-[1-[(2S,3R,5R,10R,13R,14S,17S)-2,3,14-trihydroxy-10,13-dimethyl-6-oxo-2,3,4,5,9,11,12,15,16,17-decahydro-1H-cyclopenta[a]phenanthren-17-yl]ethyl]furan-2-carboxamide] | < 70 | 110 to 129 | ~120
CC([C@H]1CC[C@@]2(O)C3=CC(=O)[C@@H]4C[C@@H](O)[C@@H](O)C[C@]4(C)C3CC[C@]12C)N(CC(F)F)C(=O)c1ccco1 (stereo partly drawn) [Compound 67, N-(2,2-difluoroethyl)-N-[1-[(2S,3R,5R,10R,13R,14S,17S)-2,3,14-trihydroxy-10,13-dimethyl-6-oxo-2,3,4,5,9,11,12,15,16,17-decahydro-1H-cyclopenta[a]phenanthren-17-yl]ethyl]furan-2-carboxamide] | < 70 | > 130 | 130 to 140
COCCN(C)C(C)[C@H]1CC[C@@]2(O)C3=CC(=O)[C@@H]4C[C@@H](O)[C@@H](O)C[C@]4(C)C3CC[C@]12C (stereo partly drawn) [Compound 76, (2S,3R,5R,10R,13R,14S,17S)-2,3,14-trihydroxy-17-[1-(2-methoxyethyl(methyl)amino)ethyl]-10,13-dimethyl-2,3,4,5,9,11,12,15,16,17-decahydro-1H-cyclopenta[a]phenanthren-6-one] | < 70 | 110 to 129 | ~120
C[C@]12C[C@H](O)[C@H](O)C[C@H]1C(=O)C=C1C2CC[C@]2(C)[C@@H](C(=O)CN3CCOCC3)CC[C@@]12O (stereo partly drawn) [Compound 81, (2S,3R,5R,10R,13R,14S,17S)-2,3,14-trihydroxy-10,13-dimethyl-17-(2-morpholinoacetyl)-2,3,4,5,9,11,12,15,16,17-decahydro-1H-cyclopenta[a]phenanthren-6-one] | < 70 | 110 to 129 | ~120
C[C@]12C[C@H](O)[C@H](O)C[C@H]1C(=O)C=C1C2CC[C@]2(C)[C@@H](C(=O)CN3CCC(O)C3)CC[C@@]12O (stereo partly drawn) [Compound 86, (2S,3R,5R,10R,13R,14S,17S)-2,3,14-trihydroxy-17-[2-(3-hydroxypyrrolidin-1-yl)acetyl]-10,13-dimethyl-2,3,4,5,9,11,12,15,16,17-decahydro-1H-cyclopenta[a]phenanthren-6-one] | < 70 | > 130 | 130 to 140
